{"source": "paper PMC11755562", "about": "“Peptide Inhibitor Assay for Allocating Functionally Important Accessible Sites Throughout a Protein Chain: Restriction Endonuclease EcoRI as a Model Protein System” (BioTech, 2024)", "key": {"[1]": {"molecular_target": "T1, EcoRI (Escherichia coli, UniProt P00642)", "T1 construct": "The first M is removed after translation in this protein; purchased New England Biolabs", "T1 sequence (P00642 2-277)": "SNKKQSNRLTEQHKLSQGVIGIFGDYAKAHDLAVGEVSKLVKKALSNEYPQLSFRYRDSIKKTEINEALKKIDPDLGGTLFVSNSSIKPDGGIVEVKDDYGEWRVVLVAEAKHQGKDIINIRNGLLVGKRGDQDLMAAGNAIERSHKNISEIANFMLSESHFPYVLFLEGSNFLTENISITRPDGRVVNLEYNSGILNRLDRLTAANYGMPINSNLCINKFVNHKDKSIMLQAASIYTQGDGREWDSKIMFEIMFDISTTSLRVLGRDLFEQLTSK", "assay": "Peptide inhibitor assay (PIA): EcoRI digestion of pCRII-TOPO-OR23 plasmid, fluorescence intensity of the excised OR23 band on agarose gel", "type": "biochemical", "settings": "for level of inhibitory effect on EcoRI (in words) / relative fluorescence intensity of excised OR23 fragment / significance of inhibition of EcoRI activity versus no peptide / inhibitory effect compared with the original peptide (in words): 3 h; for level of inhibitory effect on EcoRI (in words): EcoRI:peptide 1:500, relative fluorescence intensity; for relative fluorescence intensity of excised OR23 fragment: relative to no peptide, EcoRI:peptide 1:500 molar ratio, 37 °C, 0.015 mM Mg2+, mean of n = 3; for significance of inhibition of EcoRI activity versus no peptide: EcoRI:peptide 1:500, Dunnett's test versus no peptide; for inhibitory effect compared with the original peptide (in words): EcoRI:peptide 1:500, randomized peptides by Student's t-test versus each endogenous BP", "procedure": "Peptide synthesis was performed by GenScript Japan (Tokyo, Japan). All peptides were confirmed to be more than 75% pure via high-performance liquid chromatography (HPLC) and to have theoretical molecular weights via mass spectrometry (MS). The peptides were dissolved in DMSO (dimethyl sulfoxide) and were prepared at 5.59 × 10^−9 mol/μL (5.59 mM). When 1.0 μL of this peptide mixture was mixed in a tube for the inhibition of EcoRI catalytic activity, the molar ratio of EcoRI to peptide was 1:500. This concentration in molar equivalence was used throughout this study unless otherwise noted.\nPurified and concentrated EcoRI (20,000 U/mL, approximately 338 μg/mL, 1.12 × 10^−[…]) was obtained from New England Biolabs (Ipswich, MA, USA). To quantify and visualize the inhibitory effects of the peptides, the enzymatic reaction conditions were set so that at least three hours of incubation were required to completely digest the substrate plasmid DNA with EcoRI. To do so, we used a low Mg^2+ concentration (0.015 mM) in the reaction mixture in contrast to the optimum concentration of Mg^2+ for EcoRI (10 mM).\n(§1) All master solutions and samples were prepared on ice. A single reaction tube contained the following common ingredients: autoclaved DNase-free RNase-free deionized H2O (12.5 μL) (Nippon Gene), 10× NE Buffer Mg^2+-free (2.0 μL), pCRII-TOPO-OR23 plasmid DNA (2.0 μL of 40 ng/μL solution), MgCl2 (1.5 μL of 0.20 mM solution), and EcoRI (1.0 μL). A master solution containing these ingredients without DMSO or a peptide was first prepared for the number of sample tubes. The master solution was aliquoted into 1.5 mL spin tubes (19.0 μL per tube). Then, 1.0 μL of DMSO or a peptide sample was added, and the mixture was incubated at 37 °C. A negative control with DMSO but without a peptide (“no peptide” control) was run in every assay. When the digestion efficiency was compared, another negative control with autoclaved DNase-free RNase-free H2O without EcoRI was prepared. After the reaction, the samples were quickly cooled on ice for ten minutes and then stored at −80 °C until agarose gel electrophoresis. The above protocol was conducted for all peptides (including BP19.5, BP19.5N, and BP19.5C) used in the present study unless otherwise noted.\nTo quantify EcoRI activity after incubation of a reaction mixture, digested pCRII-TOPO-OR23 plasmid DNA was examined via agarose gel electrophoresis. We first prepared a 25 mL solution of 1.0% agarose (Nippon Gene) in TAE (Tris-acetate-EDTA) buffer (Promega, Madison, WI, USA) to produce an agarose gel. An ethidium bromide solution (0.5 μL of 10 mg/mL) (Promega) was added before gelation. After incubation with EcoRI, the fluorescence intensity of the band of the excised OR23 fragment was measured via an ImageQuant LAS4000 (GE Healthcare Japan, Tokyo, Japan) with the following conditions: “Exposure Type”: Precision; “Exposure Time”: Manual 1/8 sec; “Sensitivity/Resolution”: Standard; and “Fluorescent Method”: Epi illumination; EtBr; UV (Trans UV) light; 6-5DF50 Filter; and F2.8 Iris.\nFor statistical analyses, Student’s t-test (unpaired and bi-sided), Dunnett’s test, and Pearson correlation analysis were performed via Microsoft Excel (Office 365) and JSTAT (Yokohama, Japan). The Dunnett’s test was performed for each experimental group that was examined simultaneously in the laboratory, in comparison to the “no peptide” control group that was examined simultaneously. The repeated measure mode of the Dunnett’s test was used on the assumption that there was no interaction between samples."}, "[2]": {"molecular_target": "T1, EcoRI", "assay": "Nonspecific nuclease activity of EcoRI reaction mixture with peptide (plasmid DNA degradation)", "type": "biochemical", "settings": "EcoRI plus peptide 1:500, 3 h, n = 3", "procedure": "A recombinant plasmid, pCRII-TOPO (Invitrogen, Waltham, MA, USA), containing a PCR fragment of the full-length cDNA (978 bp) of the mouse odorant receptor OR23 [82, 83, 84, 85, 86] at the EcoRI cloning site (GAATTC) was used as a DNA substrate for EcoRI. […] This pCRII-TOPO-OR23 plasmid was prepared from TOP10F’ Escherichia coli (Invitrogen) using ATP Plasmid Mini Kit (ATP Biotech, Taipei, ROC). The plasmid solution was prepared at 40 ng/μL by adding autoclaved DNase-free RNase-free deionized H2O (Nippon Gene, Tokyo, Japan). The DNA concentrations were measured with a Qubit fluorometer (Invitrogen).\nas §1\nThis reaction mixture containing EcoRI and BP19.5 appeared to degrade the plasmid DNA entirely. […] The DNA concentration at 3 h was 3.297 ± 0.006 ng/μL without any peptide in the reaction mixture and 0.332 ± 0.003 ng/μL with BP19.5, indicating a statistically significant difference (n = 3; unpaired bi-sided Student’s t-test; p = 1.6 × 10^−11). […] Therefore, BP19.5 and its derivatives are likely to cause EcoRI to become a nonspecific nuclease. In other words, BP19.5 was likely a specificity/activity modifier of EcoRI instead of an inhibitor."}}, "note": "“Also recorded” adds a separate entry of the source."}
{"substance": "LGRDLFEQLTSK [BP25]", "values": [{"measurement": "level of inhibitory effect on EcoRI (in words)", "setting": "[1]; n = 3", "value": "especially notable; also recorded: most inhibitory; also recorded: most effective"}, {"measurement": "relative fluorescence intensity of excised OR23 fragment", "setting": "[1]", "value": "less than 0.3"}]}
{"substance": "LSQGVIGIFGDY [BP2.5]", "values": [{"measurement": "level of inhibitory effect on EcoRI (in words)", "setting": "[1]; n = 3", "value": "notable"}, {"measurement": "relative fluorescence intensity of excised OR23 fragment", "setting": "[1]", "value": "less than 0.3"}]}
{"substance": "NAIERSHKNIS [BP13.5]", "values": [{"measurement": "level of inhibitory effect on EcoRI (in words)", "setting": "[1]; n = 3", "value": "not very inhibitory"}]}
{"substance": "NEYPQLAFRYRDS [BP5]", "values": [{"measurement": "significance of inhibition of EcoRI activity versus no peptide", "setting": "[1]; n = 3", "value": "significantly inhibitory"}, {"measurement": "level of inhibitory effect on EcoRI (in words)", "setting": "[1]; n = 3", "value": "highly inhibitory; also recorded: most effective"}, {"measurement": "relative fluorescence intensity of excised OR23 fragment", "setting": "[1]", "value": "less than 0.3"}]}
{"substance": "NGLLVG [BP12N]", "values": [{"measurement": "inhibitory effect compared with the original peptide (in words)", "setting": "[1]; n = 3", "value": "more inhibitory than the original"}]}
{"substance": "NISEIA [BP14M]", "values": [{"measurement": "level of inhibitory effect on EcoRI (in words)", "setting": "[1]; n = 3", "value": "noninhibitory"}]}
{"substance": "NLCINK [BP19.5C, deletion peptide from BP19.5]", "values": [{"measurement": "plasmid DNA degradation / nonspecific nuclease induction (agarose gel electrophoresis, in words)", "setting": "[2]", "value": "no DNA was detected; also recorded: induced such nuclease activity"}]}
{"substance": "NSGILNRLDRLTA [BP18]", "values": [{"measurement": "level of inhibitory effect on EcoRI (in words)", "setting": "[1]; n = 3", "value": "especially notable; also recorded: most effective"}, {"measurement": "relative fluorescence intensity of excised OR23 fragment", "setting": "[1]", "value": "less than 0.3"}]}
{"substance": "PINSNL [BP19.5N, deletion peptide from BP19.5]", "values": [{"measurement": "plasmid DNA degradation / nonspecific nuclease induction (agarose gel electrophoresis, in words)", "setting": "[2]", "value": "no DNA was detected; also recorded: induced such nuclease activity"}]}
{"substance": "PINSNLCINK [BP19.5]", "values": [{"measurement": "plasmid DNA degradation / nonspecific nuclease induction (agarose gel electrophoresis, in words)", "setting": "[2]", "value": "no DNA fragment or plasmid DNA was detected"}, {"measurement": "DNA concentration at 3 h in the reaction mixture", "setting": "[2]; no peptide 3.297 ± 0.006", "value": "0.332 ± 0.003", "unit": "ng/µL"}]}
{"substance": "RNGLLVGKRGDQD [BP12]", "values": [{"measurement": "significance of inhibition of EcoRI activity versus no peptide", "setting": "[1]; n = 3", "value": "significantly inhibited EcoRI activity"}]}
{"substance": "SHKNIS [BP14N]", "values": [{"measurement": "level of inhibitory effect on EcoRI (in words)", "setting": "[1]; n = 3", "value": "noninhibitory"}]}
{"substance": "SHKNISEIANFM [BP14]", "values": [{"measurement": "significance of inhibition of EcoRI activity versus no peptide", "setting": "[1]; n = 3", "value": "significantly inhibited EcoRI activity"}, {"measurement": "level of inhibitory effect on EcoRI (in words)", "setting": "[1]; n = 3", "value": "especially notable; also recorded: moderate inhibitory effect"}, {"measurement": "inhibitory effect, fluorescence intensity versus incubation time (in words)", "setting": "[1]; time course until 5 h, EcoRI:peptide 1:500, compared with no peptide, n = 3", "value": "relatively high inhibitory effects"}, {"measurement": "concentration dependence of the inhibitory effect", "setting": "[1]; ×5 to ×500 molar equivalence to EcoRI, fixed time point 3 h, n = 3", "value": "concentration dependent"}]}
{"substance": "SNKKQSNRLTEQHK [BP1]", "values": [{"measurement": "significance of inhibition of EcoRI activity versus no peptide", "setting": "[1]; n = 3", "value": "significantly inhibitory"}, {"measurement": "level of inhibitory effect on EcoRI (in words)", "setting": "[1]; n = 3", "value": "reasonably inhibitory"}]}
{"substance": "SSIKPDGGIVE [BP8.5]", "values": [{"measurement": "level of inhibitory effect on EcoRI (in words)", "setting": "[1]; n = 3", "value": "not very inhibitory"}]}
{"substance": "STTSLRVLGRDLFE [BP24]", "values": [{"measurement": "level of inhibitory effect on EcoRI (in words)", "setting": "[1]; n = 3", "value": "did not work well"}]}
{"substance": "TRPDGRVVNLEY [BP17]", "values": [{"measurement": "level of inhibitory effect on EcoRI (in words)", "setting": "[1]; n = 3", "value": "not very inhibitory"}]}
{"substance": "VEGQELAVKAHRWV [BP10R1]", "values": [{"measurement": "inhibitory effect compared with the original peptide (in words)", "setting": "[1]; n = 3", "value": "significantly more inhibitory"}]}
{"substance": "VGLILSTGDFDP [BP7R1]", "values": [{"measurement": "inhibitory effect compared with the original peptide (in words)", "setting": "[1]; n = 3", "value": "as inhibitory as the original peptides"}]}
{"substance": "VIGIFGDYAKAHDL [BP3]", "values": [{"measurement": "significance of inhibition of EcoRI activity versus no peptide", "setting": "[1]; n = 3", "value": "significantly inhibitory"}, {"measurement": "level of inhibitory effect on EcoRI (in words)", "setting": "[1]; n = 3", "value": "highly inhibitory; also recorded: most effective"}, {"measurement": "relative fluorescence intensity of excised OR23 fragment", "setting": "[1]", "value": "less than 0.3"}]}
{"substance": "VKDDYG [BP9C]", "values": [{"measurement": "level of inhibitory effect on EcoRI (in words)", "setting": "[1]; n = 3", "value": "noninhibitory"}]}
{"substance": "VNHKDKSIMLQA [BP20.5]", "values": [{"measurement": "level of inhibitory effect on EcoRI (in words)", "setting": "[1]; n = 3", "value": "did not show high inhibition"}]}
{"substance": "VVNLEYNSGILN [BP17.5]", "values": [{"measurement": "level of inhibitory effect on EcoRI (in words)", "setting": "[1]; n = 3", "value": "not very inhibitory"}]}
{"substance": "YVLFLE [BP15C]", "values": [{"measurement": "level of inhibitory effect on EcoRI (in words)", "setting": "[1]; n = 3", "value": "most effective"}, {"measurement": "inhibitory effect compared with the original peptide (in words)", "setting": "[1]; n = 3", "value": "more inhibitory than the original BP15"}, {"measurement": "relative fluorescence intensity of excised OR23 fragment", "setting": "[1]", "value": "less than 0.3"}]}
